Assay results reported in US20100240656A1, “COMPOUNDS AS HSP90 INHIBITORS” (ORYZON GENOMICS, S.A., priority 2007, published 2010).

Columns and labels:
[1] = test system: MCF-7; assay: Cell proliferation by MTT method, MCF-7; assay type: cell-based; conditions: Homo sapiens
Experimental: The objective of this study was to determine the influence of the compounds on cell proliferation of K-562, A-549, MCF-7, HeLa, WI-38 by MTT method. The compounds were tested over a three-fold dilution series in triplicate for the determination of EC50 of their influence on cell proliferation.
The assay is based on the cleavage of the yellow tetrazolium salt MTT into purple formazan by metabolically active cells. The MTT formazan crystals are insoluble in aqueous solution, but may be solubilized by adding the 10% SDS, then incubating the plates overnight in a humidified atmosphere (e.g., 37° C., 5% CO2). The solubilized formazan product can be photometrically quantitated using Tecan reader. An increase in the number of living cells results in an increase of total metabolic activity, which leads to a stronger color formation.
EC50 values are defined as the compound concentration at which 50% of reaction product is formed.
Test compounds were dissolved to 10 mM in 100% DMSO.
In the day of the experiment cells were seeded into all wells of 96-well plates. Serial dilution of compounds was performed in a separate 96-well plate at 20 times final assay concentration in cell culture medium (DMEM with 10% Fetal Bovine Serum). 5 μl of compound was transferred to 96-well plate containing seeded cells in cell culture medium (final total volume=100 μl). Cells were cultured in the presence of the respective test substances in the 96-well plate at 37° C. in a humidified 5% CO2 incubator for a certain period of time (24, 72 or 120 hours). Then 5 μL of thiazolyl blue tetrazolium bromide (MTT) 5 mg/mL was added to the cells and the cells were reincubated 4 hours in a humidified 5% CO2 incubator. Then 10% SDS was added into the each well. The reaction product was quantified by measuring the absorbance at 568 nm using a scanning multiwell spectrophotometer Tecan. The developed color and thereby the absorbance values directly correlate to the number of the living cells.
The data were analyzed using Microsoft Excel 2000, GraphPad Prism 3.03.
K 562 (human, chronic myelongenous leukemia), A 549 (human, lung carcinoma), MCF-7 (human, breast adenocarcinoma), Hela (human, cervix, carcinoma, epitheloid), WI-38 (human, embryonic lung)

[2] = target: T1, Hsp90α (Homo sapiens, UniProt P07900); assay: Human Hsp90α fluorescence polarization competition assay with Example 37 tracer; conditions: displacement of 50 nM example 37 tracer, 125 nM Hsp90α, 1 h 30 min, 20° C.; read-out: Relative binding affinity values (IC50) obtained from FP measurements
T1 construct: purchased Stressgen Bioreagents SPP-776
Excerpt: The aim of this study was to determine the binding ability of compounds of the invention to the N-terminal ATP binding site of Hsp90. For that purpose competition assays with fluorescently labeled Hsp90 binders were used (compounds of examples 37 and 41).
Compounds of examples 37 and 41 are structurally based on 8-(6-Iodo-benzo[1,3]dioxol-5-ylsulfanyl)-9-(3-isopropylamino-propyl)-9H-purin-6-ylamine, a known binder of the N-terminal ATP binding site of Hsp90 which has the ability of inhibiting the Hsp90 function (cf. Chiosis G. et al. “Identification of Potent Water Soluble Purine-Scaffold Inhibitors of the Heat Shock Protein 90”, J. Med. Chem., 2006, vol. 49, no. 1, p. 381). Compounds 37 and 41 keep the essential structural features of the known binder (which means that said compounds are able to bind to the ATP binding site) and incorporate a fluorescent probe which allows the detection of the binding by fluorescence polarization.
When the binders of examples 37 and 41 are used in the competition assay, in a first step said binders are allowed to interact with the N-terminal ATP binding site of Hsp90. Then the compounds of the invention are added and it is determined if they are able to bind to the N-terminal ATP binding site (which will imply that the binders of examples 37 and 41 have been replaced from the N-terminal ATP binding site). If after performing the assay, the binding between the tested compound of the invention and the Hsp90 is observed, this will be indicative that the compound of the invention has been bound to the ATP binding site of Hsp90 and, therefore, can inhibit the Hsp90.
Once compounds of examples 37 and 41 were synthesized as reported above, they were dissolved at 238 μM and 1 mM in DMSO respectively (Sigma-Aldrich, cat. No. 154938). Hsp90α was purchased from Stressgen Bioreagents (cat. No. SPP-776; Victoria, Canada). The assay buffer contained 100 mM Tris·HCl, pH 7.4, 20 mM KCl, 6 mM MgCl2. Before each use 5 μg/mL bovine serum albumin (BSA, Pierce, Rockford (Ill.), cat No. 23209), 0.25 mM TCEP (Sigma, cat No. 64706) and 0.01% NP40 (Nonidet P40 Substitute, Fluka, cat No. 74385) were freshly added (cf. Howes et al., “A fluorescence polarization assay for inhibitors of Hsp90”, Analytical Biochemistry, 2006, vol. 350, p. 202-213; Kim et al., “Development of a fluorescence polarization assay for the molecular chaperone Hsp90”, J. Biomol. Screen., 2004, vol. 9 (5)).
Fluorescence polarization measurements were performed on an Infinite F200 (Tecan, Austria). Measurements were taken in black 96-well microplates (Corning Costar No. 3650) in which both the excitation and the emission occurred from the top of the wells. In the Infinite F200, a xenon arc lamp provides excitation light that passes through a 485 nm (20-nm bandwidth) excitation filter and then a polarizer filter. A beam splitter filter directs the polarized excitation light into the well, and emitted fluorescence transmits back through the same beam-splitter filter, through a polarizer filter, and then through a 535 nm (25-nm bandwidth) emission filter for detection (Kim et al., supra). The read time per well was 20 μs, and the number of reads per well was 25.
Compounds were assayed over a three-fold dilution series in a 96-well plate format to determine IC50 values. The serial dilution was performed in a separate 96-well plate (Thermowell 96 well PCR plate, Non-Treated Polypropylene, Corning Costar No. 6551) at 50 times final assay concentration in DMSO. (Howes et al, supra). 2 μl of compound was transferred to a black 96-well plate (Corning Costar No. 3650) and 98 μL of reaction solution (100 mM Tris·HCl, pH 7.4, 20 mM KCl, 6 mM MgCl2, 5 μg/mL bovine serum albumin (BSA), 0.25 mM TCEP, 0.01% NP40, 50 nM the compound of example 37, 125 nM Hsp90α) was added per well. The plate was allowed to equilibrate for 1 h 30 min on a slow moving shaker at 20° C. in the dark. […]

[3] = MCF7, 24 h, MCF-7, incubation 1 day
[4] = MCF7, 72 h, MCF-7, incubation 3 days
[5] = MCF7, 120 h, MCF-7, incubation 5 days

SMILES	EC50 [1, 3]	EC50 [1, 4]	EC50 [1, 5]	IC50 [2]
NCCCCCn1c(Sc2cc3c(cc2I)OCO3)nc(C(N)=O)c1N [Example 6, 5-amino-1-(5-amino-pentyl)-2-(6-iodo-benzo[1,3]dioxol-5-ylsulfanyl)-1H-imidazole-4-carboxamide]	> 100 µM	17.3 µM	16.7 µM	880 nM
CCCCn1c(Sc2cc3c(cc2I)OCO3)nc(C(N)=O)c1N [Example 10, 5-amino-1-butyl-2-(6-iodo-benzo[1,3]dioxol-5-ylsulfanyl)-1H-imidazole-4-carboxamide]	> 100 µM	10.1 µM	11.7 µM	1700 nM
